{
  "source": "patent US10131652B2",
  "about": "“Pyrimidinyloxy benzene derivatives as herbicides” (E. I. DU PONT DE NEMOURS AND COMPANY, priority 2014, dated 2018)",
  "type_in_all_cases": "in vivo",
  "key": {"[1]": {"system": "galium (catchweed bedstraw, Galium aparine)", "experiment": "Test B postemergence plant response", "settings": "Postemergence, 0 to 100 scale (0 no effect, 100 complete control)", "text": "(§1) At the same time, plants selected from these crop and weed species and also blackgrass (Alopecurus myosuroides), and galium (catchweed bedstraw, Galium aparine) were planted in pots containing the same blend of loam soil and sand and treated with postemergence applications of test chemicals formulated in the same manner. Plants ranged in height from 2 to 10 cm and were in the one- to two-leaf stage for the postemergence treatment. Treated plants and untreated controls were maintained in a greenhouse for approximately 10 days, after which time all treated plants were compared to untreated controls and visually evaluated for injury. Plant response ratings, summarized in Table B, are based on a 0 to 100 scale where 0 is no effect and 100 is complete control. A dash (-) response means no test result."}, "[2]": {"system": "blackgrass (Alopecurus myosuroides)", "experiment": "Test B postemergence plant response", "settings": "Postemergence, 0 to 100 scale (0 no effect, 100 complete control)", "text": "as §1"}, "[3]": {"system": "ragweed (common ragweed, Ambrosia elatior)", "experiment": "Test B pre-/postemergence plant response", "text": "as §1, with “Seeds of plant species selected from bamyardgrass (Echinochloa crus-galli), kochia (Kochia scoparia), ragweed (common ragweed, Ambrosia elatior), Italian ryegrass (Lolium multiflorum), large (Lg) crabgrass (Digitaria sanguinalis), giant foxtail (Setaria faberii), momingglory (Ipomoea spp.), pigweed (Amaranthus retroflexus), velvetleaf (Abutilon theophrasti), wheat (Triticum aestivum), and corn (Zea mays) were planted into a blend of loam soil and sand and treated preemergence with a directed soil spray using test chemicals formulated in a non-phytotoxic solvent mixture which included a surfactant. At” for “At”"}, "kochia (Kochia scoparia)": {"system": "kochia (Kochia scoparia)", "experiment": "Test B pre-/postemergence plant response", "text": "as §1, with “Seeds of plant species selected from bamyardgrass (Echinochloa crus-galli), kochia (Kochia scoparia), ragweed (common ragweed, Ambrosia elatior), Italian ryegrass (Lolium multiflorum), large (Lg) crabgrass (Digitaria sanguinalis), giant foxtail (Setaria faberii), momingglory (Ipomoea spp.), pigweed (Amaranthus retroflexus), velvetleaf (Abutilon theophrasti), wheat (Triticum aestivum), and corn (Zea mays) were planted into a blend of loam soil and sand and treated preemergence with a directed soil spray using test chemicals formulated in a non-phytotoxic solvent mixture which included a surfactant. At” for “At”"}, "[4]": {"system": "pigweed (Amaranthus retroflexus)", "experiment": "Test B pre-/postemergence plant response", "text": "as §1, with “Seeds of plant species selected from bamyardgrass (Echinochloa crus-galli), kochia (Kochia scoparia), ragweed (common ragweed, Ambrosia elatior), Italian ryegrass (Lolium multiflorum), large (Lg) crabgrass (Digitaria sanguinalis), giant foxtail (Setaria faberii), momingglory (Ipomoea spp.), pigweed (Amaranthus retroflexus), velvetleaf (Abutilon theophrasti), wheat (Triticum aestivum), and corn (Zea mays) were planted into a blend of loam soil and sand and treated preemergence with a directed soil spray using test chemicals formulated in a non-phytotoxic solvent mixture which included a surfactant. At” for “At”"}, "[5]": {"system": "barnyardgrass (Echinochloa crus-galli)", "experiment": "Test B pre-/postemergence plant response", "text": "as §1, with “Seeds of plant species selected from bamyardgrass (Echinochloa crus-galli), kochia (Kochia scoparia), ragweed (common ragweed, Ambrosia elatior), Italian ryegrass (Lolium multiflorum), large (Lg) crabgrass (Digitaria sanguinalis), giant foxtail (Setaria faberii), momingglory (Ipomoea spp.), pigweed (Amaranthus retroflexus), velvetleaf (Abutilon theophrasti), wheat (Triticum aestivum), and corn (Zea mays) were planted into a blend of loam soil and sand and treated preemergence with a directed soil spray using test chemicals formulated in a non-phytotoxic solvent mixture which included a surfactant. At” for “At”"}, "[6]": {"system": "Italian ryegrass (Lolium multiflorum)", "experiment": "Test B pre-/postemergence plant response", "text": "as §1, with “Seeds of plant species selected from bamyardgrass (Echinochloa crus-galli), kochia (Kochia scoparia), ragweed (common ragweed, Ambrosia elatior), Italian ryegrass (Lolium multiflorum), large (Lg) crabgrass (Digitaria sanguinalis), giant foxtail (Setaria faberii), momingglory (Ipomoea spp.), pigweed (Amaranthus retroflexus), velvetleaf (Abutilon theophrasti), wheat (Triticum aestivum), and corn (Zea mays) were planted into a blend of loam soil and sand and treated preemergence with a directed soil spray using test chemicals formulated in a non-phytotoxic solvent mixture which included a surfactant. At” for “At”"}, "[7]": {"system": "wheat (Triticum aestivum)", "experiment": "Test B pre-/postemergence plant response", "settings": "0 to 100 scale (0 no effect, 100 complete control)", "text": "as §1, with “Seeds of plant species selected from bamyardgrass (Echinochloa crus-galli), kochia (Kochia scoparia), ragweed (common ragweed, Ambrosia elatior), Italian ryegrass (Lolium multiflorum), large (Lg) crabgrass (Digitaria sanguinalis), giant foxtail (Setaria faberii), momingglory (Ipomoea spp.), pigweed (Amaranthus retroflexus), velvetleaf (Abutilon theophrasti), wheat (Triticum aestivum), and corn (Zea mays) were planted into a blend of loam soil and sand and treated preemergence with a directed soil spray using test chemicals formulated in a non-phytotoxic solvent mixture which included a surfactant. At” for “At”"}, "[8]": {"system": "giant foxtail (Setaria faberii)", "experiment": "Test B pre-/postemergence plant response", "text": "as §1, with “Seeds of plant species selected from bamyardgrass (Echinochloa crus-galli), kochia (Kochia scoparia), ragweed (common ragweed, Ambrosia elatior), Italian ryegrass (Lolium multiflorum), large (Lg) crabgrass (Digitaria sanguinalis), giant foxtail (Setaria faberii), momingglory (Ipomoea spp.), pigweed (Amaranthus retroflexus), velvetleaf (Abutilon theophrasti), wheat (Triticum aestivum), and corn (Zea mays) were planted into a blend of loam soil and sand and treated preemergence with a directed soil spray using test chemicals formulated in a non-phytotoxic solvent mixture which included a surfactant. At” for “At”"}, "corn (Zea mays)": {"system": "corn (Zea mays)", "experiment": "Test B pre-/postemergence plant response", "settings": "0 to 100 scale (0 no effect, 100 complete control)", "text": "as §1, with “Seeds of plant species selected from bamyardgrass (Echinochloa crus-galli), kochia (Kochia scoparia), ragweed (common ragweed, Ambrosia elatior), Italian ryegrass (Lolium multiflorum), large (Lg) crabgrass (Digitaria sanguinalis), giant foxtail (Setaria faberii), momingglory (Ipomoea spp.), pigweed (Amaranthus retroflexus), velvetleaf (Abutilon theophrasti), wheat (Triticum aestivum), and corn (Zea mays) were planted into a blend of loam soil and sand and treated preemergence with a directed soil spray using test chemicals formulated in a non-phytotoxic solvent mixture which included a surfactant. At” for “At”"}, "[9]": {"system": "velvetleaf (Abutilon theophrasti)", "experiment": "Test B pre-/postemergence plant response", "settings": "1000 g ai/ha, 0 to 100 scale (0 no effect, 100 complete control)", "text": "as §1, with “Seeds of plant species selected from bamyardgrass (Echinochloa crus-galli), kochia (Kochia scoparia), ragweed (common ragweed, Ambrosia elatior), Italian ryegrass (Lolium multiflorum), large (Lg) crabgrass (Digitaria sanguinalis), giant foxtail (Setaria faberii), momingglory (Ipomoea spp.), pigweed (Amaranthus retroflexus), velvetleaf (Abutilon theophrasti), wheat (Triticum aestivum), and corn (Zea mays) were planted into a blend of loam soil and sand and treated preemergence with a directed soil spray using test chemicals formulated in a non-phytotoxic solvent mixture which included a surfactant. At” for “At”"}, "[10]": {"system": "morningglory (Ipomoea spp.)", "experiment": "Test B pre-/postemergence plant response", "settings": "1000 g ai/ha, 0 to 100 scale (0 no effect, 100 complete control)", "text": "as §1, with “Seeds of plant species selected from bamyardgrass (Echinochloa crus-galli), kochia (Kochia scoparia), ragweed (common ragweed, Ambrosia elatior), Italian ryegrass (Lolium multiflorum), large (Lg) crabgrass (Digitaria sanguinalis), giant foxtail (Setaria faberii), momingglory (Ipomoea spp.), pigweed (Amaranthus retroflexus), velvetleaf (Abutilon theophrasti), wheat (Triticum aestivum), and corn (Zea mays) were planted into a blend of loam soil and sand and treated preemergence with a directed soil spray using test chemicals formulated in a non-phytotoxic solvent mixture which included a surfactant. At” for “At”"}, "[11]": {"system": "large (Lg) crabgrass (Digitaria sanguinalis)", "experiment": "Test B pre-/postemergence plant response", "settings": "1000 g ai/ha, 0 to 100 scale (0 no effect, 100 complete control)", "text": "as §1, with “Seeds of plant species selected from bamyardgrass (Echinochloa crus-galli), kochia (Kochia scoparia), ragweed (common ragweed, Ambrosia elatior), Italian ryegrass (Lolium multiflorum), large (Lg) crabgrass (Digitaria sanguinalis), giant foxtail (Setaria faberii), momingglory (Ipomoea spp.), pigweed (Amaranthus retroflexus), velvetleaf (Abutilon theophrasti), wheat (Triticum aestivum), and corn (Zea mays) were planted into a blend of loam soil and sand and treated preemergence with a directed soil spray using test chemicals formulated in a non-phytotoxic solvent mixture which included a surfactant. At” for “At”"}, "[12]": {"settings": "Postemergence, 500 g ai/ha, 0 to 100 scale (0 no effect, 100 complete control)"}, "[13]": {"settings": "Preemergence, 500 g ai/ha, 0 to 100 scale where 0 is no effect and 100 is complete control"}, "[14]": {"settings": "Postemergence, 1000 g ai/ha, 0 to 100 scale (0 no effect, 100 complete control)"}, "[15]": {"settings": "Preemergence, 1000 g ai/ha, 0 to 100 scale (0 no effect, 100 complete control)"}},
  "data": [
    {"smiles": "ON=Cc1cc(-c2ccccc2Oc2ncc(Cl)cn2)no1", "note": "[Compound 37]", "values": [
      {"measurement": "Plant response rating, Galium", "setting": "[1]; 500 g ai/ha", "result": 0},
      {"measurement": "Plant response rating, Blackgrass", "setting": "[2]; 500 g ai/ha", "result": 0},
      {"measurement": "Plant response rating, Ragweed", "setting": "[3]; [12]", "result": 0},
      {"measurement": "Plant response rating, Ragweed", "setting": "[3]; [13]", "result": 0},
      {"measurement": "Plant response rating, Kochia", "setting": "kochia (Kochia scoparia); [12]", "result": 0},
      {"measurement": "Plant response rating, Kochia", "setting": "kochia (Kochia scoparia); [13]", "result": 0},
      {"measurement": "Plant response rating, Pigweed", "setting": "[4]; [12]", "result": 20},
      {"measurement": "Plant response rating, Pigweed", "setting": "[4]; [13]", "result": 40},
      {"measurement": "Plant response rating, Barnyardgrass", "setting": "[5]; [12]", "result": 0},
      {"measurement": "Plant response rating, Barnyardgrass", "setting": "[5]; [13]", "result": 0},
      {"measurement": "Plant response rating, Ryegrass, Italian", "setting": "[6]; [12]", "result": 0},
      {"measurement": "Plant response rating, Ryegrass, Italian", "setting": "[6]; [13]", "result": 0},
      {"measurement": "Plant response rating, Wheat", "setting": "[7]; Postemergence, 500 g ai/ha", "result": 0},
      {"measurement": "Plant response rating, Foxtail, Giant", "setting": "[8]; [12]", "result": 10},
      {"measurement": "Plant response rating, Foxtail, Giant", "setting": "[8]; [13]", "result": 0},
      {"measurement": "Plant response rating, Corn", "setting": "corn (Zea mays); Postemergence, 500 g ai/ha", "result": 0}
    ]},
    {"smiles": "Brc1cnc(Oc2ccccc2-c2nnco2)nc1", "note": "[Compound 5]", "values": [
      {"measurement": "Plant response rating, Velvetleaf", "setting": "[9]; Postemergence", "result": 30},
      {"measurement": "Plant response rating, Velvetleaf", "setting": "[9]; Preemergence", "result": 20},
      {"measurement": "Plant response rating, Pigweed", "setting": "[4]; [14]", "result": 70},
      {"measurement": "Plant response rating, Pigweed", "setting": "[4]; [15]", "result": 90},
      {"measurement": "Plant response rating, Barnyardgrass", "setting": "[5]; [14]", "result": 20},
      {"measurement": "Plant response rating, Barnyardgrass", "setting": "[5]; [15]", "result": 0},
      {"measurement": "Plant response rating, Morningglory", "setting": "[10]; Postemergence", "result": 20},
      {"measurement": "Plant response rating, Morningglory", "setting": "[10]; Preemergence", "result": 0},
      {"measurement": "Plant response rating, Wheat", "setting": "[7]; Postemergence, 1000 g ai/ha", "result": 0},
      {"measurement": "Plant response rating, Wheat", "setting": "[7]; Preemergence, 1000 g ai/ha", "result": 0},
      {"measurement": "Plant response rating, Crabgrass, Large", "setting": "[11]; Postemergence", "result": 0},
      {"measurement": "Plant response rating, Crabgrass, Large", "setting": "[11]; Preemergence", "result": 0},
      {"measurement": "Plant response rating, Foxtail, Giant", "setting": "[8]; [14]", "result": 0},
      {"measurement": "Plant response rating, Foxtail, Giant", "setting": "[8]; [15]", "result": 0},
      {"measurement": "Plant response rating, Corn", "setting": "corn (Zea mays); Postemergence, 1000 g ai/ha", "result": 0},
      {"measurement": "Plant response rating, Corn", "setting": "corn (Zea mays); Preemergence, 1000 g ai/ha", "result": 0}
    ]},
    {"smiles": "CCOC(=O)c1cc(-c2ccccc2Oc2ncc(Cl)cn2)no1", "note": "[Compound 148]", "values": [
      {"measurement": "Plant response rating, Galium", "setting": "[1]; 1000 g ai/ha", "result": 0},
      {"measurement": "Plant response rating, Blackgrass", "setting": "[2]; 1000 g ai/ha", "result": 10},
      {"measurement": "Plant response rating, Ragweed", "setting": "[3]; [14]", "result": 0},
      {"measurement": "Plant response rating, Kochia", "setting": "kochia (Kochia scoparia); [14]", "result": 0},
      {"measurement": "Plant response rating, Kochia", "setting": "kochia (Kochia scoparia); [15]", "result": 0},
      {"measurement": "Plant response rating, Pigweed", "setting": "[4]; [14]", "result": 0},
      {"measurement": "Plant response rating, Pigweed", "setting": "[4]; [15]", "result": 0},
      {"measurement": "Plant response rating, Barnyardgrass", "setting": "[5]; [14]", "result": 10},
      {"measurement": "Plant response rating, Barnyardgrass", "setting": "[5]; [15]", "result": 0},
      {"measurement": "Plant response rating, Ryegrass, Italian", "setting": "[6]; [14]", "result": 0},
      {"measurement": "Plant response rating, Ryegrass, Italian", "setting": "[6]; [15]", "result": 0},
      {"measurement": "Plant response rating, Wheat", "setting": "[7]; Postemergence, 1000 g ai/ha", "result": 0},
      {"measurement": "Plant response rating, Foxtail, Giant", "setting": "[8]; [14]", "result": 10},
      {"measurement": "Plant response rating, Foxtail, Giant", "setting": "[8]; [15]", "result": 0},
      {"measurement": "Plant response rating, Corn", "setting": "corn (Zea mays); Postemergence, 1000 g ai/ha", "result": 0}
    ]}
  ]
}
